Data set [1] can be described thus: CO release from aldehyde prodrug compounds in TBHP plus rpmi solution. The following applies: for CO release / Rate of CO release: 1.5 ml rpmi + 0.5 ml TBHP, 37° C.
Experimental: (§1) At the appropriate time, 250 μl of the gas mixture was removed from the vial, injected in the gas chromatograph (Trace GC with a TCD detector from Thermo Finnigan, connected to a Chrom-card 32 bit software), and the amount of CO was measured according to previously calibrated conditions.
1.5 ml of rpmi and 0.5 ml of TBHP were added, and the vial was placed at 37° C. with orbital stirring. At the appropriate time, 250 μl of the gas mixture was analysed as described for Example 1.
In data set [2] the test system is adjuvant arthritis. Nature of the data set: Anti-arthritic activity, adjuvant arthritis in Sprague-Dawley rats. The class given is in vivo. The following applies: 100 mg/kg/day intraperitoneal for 20 days from day 10. On the procedure:
Adjuvant arthritis was induced in outbred Sprague-Dawley rats by intradermal injection into the subplantar area of the right hind paw of 0.1 ml of a 10 mg/ml suspension of Mycobacterium butyricum, killed and dried in Freund's incomplete adjuvant. Treatment was initiated 10 days after disease induction at the time of disease onset. Groups of 7 rats received intraperitoneal injections of compound 1 and compound 2 in 1 ml PBS, each at a dose of 100 mg/kg/day for 20 days. A control group of 7 rats received no treatment. Progression of arthritis was monitored by daily measurements of right and left paw volumes by a water displacement method using a plethysmometer, by daily measurements of the ankle circumference with a flexible strip, and by determination of the arthritic index based on levels of erythema and oedema of the entire paws and digits, number of joints involved, spondylosis, lesions on the tail, movement capacity and infections. The maximum possible score was 11.

Data set [3] can be described thus: CO release from aldehydes in different media (TBHP, H2O2, rpmi, pH 2), gas chromatograph. The following applies: for CO release in rpmi: RPMI media with 10% fetal calf serum; for CO release in rpmi / CO release in TBHP solution / CO release in H2O2 solution / Media in which CO release was observed: 37° C.; for CO release in TBHP solution: TBHP solution in excess, aldehyde about 0.11-0.17 M; for Effect of radical trap 2,6-di-tert-butylphenol on CO release in acidic aqueous solution: acidic aqueous solution plus radical trap; for CO release in pH 2 (acidic aqueous) solution: aqueous solution pH 2-2.5, 37° C.; for CO release in H2O2 solution: hydrogen peroxide solution, 35% in water; for Media in which CO release was observed: tested in TBHP, H2O2, rpmi and pH 2 solutions.
Experimental: In each experiment 2 ml of the appropriate solution, TBHP, H2O2, rpmi or pH 2 solution, was added and the vial placed at 37° C. with orbital stirring.
as §1

In data set [4] the test system is adjuvant arthritis. Nature of the data set: Anti-arthritic activity, adjuvant arthritis in Lewis rats. It counts as in vivo. As to conditions: for Arthritic score / Increase in paw volume compared to vehicle or untreated rats: 100 and 25 mg/kg daily.
Setting [5] is: 25 mg/kg daily injections for 30 days from day 10.
Setting [6] is: 100 mg/kg daily injections for 30 days from day 10.
Setting [7] is: listed as 4-ethyl-4-formyl-hexanenitrile.

Molecules are shown by their SMILES.

As for `CC(C)(C)C=Nc1ccc(C(=O)O)c(O)c1`, the CO release result in data set [1] is given as “Stable, but instaneous hydro- lysis was observed when dissolved in water”.
As to `CC(C)(C)C=NNC(=O)c1ccccc1`, the CO release result in data set [1] is listed as “No hydrolysis → No CO”.
For the compound `CC(C)(C)/C=N/NC(=O)Nc1ccccc1`, the CO release result in data set [1] is recorded as “No hydrolysis → No CO”.
With `COC(=O)C1COC(C(C)(C)C)N1` (stereo not shown), in data set [1] (TBHP plus rpmi), the “CO release after 6 hours” value came out at 0% and the “CO release after 24 hours” value is 4.2%.
For `CC1C(c2ccccc2)OC(C(C)(C)C)N1C` (stereo not shown), the CO release entry in data set [1] was “No hydrolysis → No CO”.
For the compound `CC(C)(C)C1Nc2ccccc2CO1` (stereo not shown), in data set [1], the CO release entry was “No hydrolysis → No CO”.
With `CC(C)(C)C1NC(C(=O)O)CS1` (racemic) [compound 9, 2-tert-butylthiazolidine-4-carboxylic acid], in data set [1], the CO release result is given as “released CO” and the “Rate of CO release” value is given as “fast within the first 6 hours”. Besides, in data set [1] (TBHP plus rpmi, 5 hours), the “CO release after 5 hours” value worked out at 17%. Also, in data set [1] (TBHP plus rpmi), the “CO release after 6 hours” value is “around 16%” and the “CO release after one day” value was 20%. For the same compound, in data set [1] (TBHP plus rpmi, 23 hours), the “CO release after 23 hours” value was 21%.
Regarding `COC(=O)C1CSC(C(C)(C)C)N1` (racemic) [compound 10], in data set [1], the CO release entry is “released CO” and the “Rate of CO release” value is on record as “very slow”. Also, in data set [1] (TBHP plus rpmi), the “CO release after 6 hours” value amounted to 0.3%, the “CO release after 25 hours” value was 10.3% and the “CO release after one day” value is “about 10%”.
Take `CC(C)(C)C1NCCS1` (racemic) [compound 11, 2-tert-butyl-thiazolidine]: in data set [1], the CO release entry was “released CO” and the “Rate of CO release” value is recorded as “initially very slowly”. In data set [1] (TBHP plus rpmi), the “CO release after 6 hours” value was determined as 3%, the “CO release after 24 hours” value is on record as 25% and the “CO release after one day” value was “about 25%”.
For the compound `CC(C)(C)C1NC(C(=O)O)CCS1` (racemic) [compound 12, 2-tert-butyl-[1,3]thiazinane-4-carboxylic acid], in data set [1], the CO release entry is “lower than its 5-membered ring analogue”. In addition, in data set [1] (TBHP plus rpmi), the “CO release after 6 hours” value is reported as 7.7%, the “CO release after 25 hours” value worked out at 15.8% and the “CO release after one day” value was “about 16%”.
With `CC(C)(C)C=O` [compound 1, trimethylacetaldehyde], in the data set with adjuvant arthritis [2], the “Body weight after disease onset” value was “No loss of body weight was observed”; the “Paw circumference (right and left)” value was “prevented the increase”; the “Paw volume (right and left)” value was “prevented the increase”. Besides, the “Dependence of CO release on TBHP concentration” value in data set [3] (0.23 M aldehyde, varying TBHP, up to 32 eq.) is “increased with the concentration of TBHP until approximately eight equivalents of TBHP was reached”. For the same compound, the “CO release at higher and lower aldehyde concentrations relative to maximum” value in data set [3] (0.25 M and 0.08 M aldehyde in TBHP) is reported as “decreased approximately to half”. For the same compound, in data set [3] (1.9 M TBHP), the “Aldehyde concentration giving maximum CO release” value is given as “around 0.12 M”. In addition, in data set [3], the “CO release in rpmi” value is given as “No CO was detected”, the “CO release in TBHP solution” value is on record as “released CO”, the “Effect of radical trap 2,6-di-tert-butylphenol on CO release in acidic aqueous solution” value (“Effect … in acidic aqueous solution” below) is given as “inhibited” and the “CO release in pH 2 (acidic aqueous) solution” value is listed as “very little”. The “CO release in H2O2 solution” value in data set [3] is “No CO was detected”. Besides, the “CO release at TBHP concentration of inflamed tissues” value in data set [3] (TBHP 1 mM) is recorded as “CO release still was observed”. Besides, the “Effect of radical trap 2,6-di-tert-butylphenol on CO release in TBHP solution” value in data set [3] (TBHP solution plus radical trap) is listed as “inhibited”. For the same compound, the “Increase in body weight by day 40” value with adjuvant arthritis [4] (setting [5]) came to 38.7%. Also, in the data set with adjuvant arthritis [4] (setting [6]), the “Increase in body weight by day 40” value is 40%. Also, in the data set with adjuvant arthritis [4], the Arthritic score entry is reported as “only slightly influenced” and the “Increase in paw volume compared to vehicle or untreated rats” value is reported as “reduced the increase in paw volume”.
For `C=CCC(C)(C)C=O` [compound 2, 2,2-dimethyl-4-pentenal], in the data set on adjuvant arthritis [2], the “Body weight after disease onset” value is on record as “No loss of body weight was observed”; the “Paw circumference (right and left)” value is given as “prevented the increase”; the “Paw volume (right and left)” value was “prevented the increase”. Besides, in data set [3], the “CO release in rpmi” value is recorded as “decarbonylation in rpmi observed”, the “CO release in TBHP solution” value is listed as “released CO”, the “CO release in pH 2 (acidic aqueous) solution” value is “very little” and the “CO release in H2O2 solution” value was “No CO release was observed”. Moreover, the “CO release in rpmi” value in data set [3] (listed as 2,2-dimethyl-4-pentenal) is given as “even less”.
On to `CCC(C=O)(CC)CCC#N` [compound 3, 4-ethyl-4-formyl-hexanenitrile], for which, in data set [3], the “CO release in rpmi” value was “decarbonylation in rpmi observed”, the “CO release in TBHP solution” value is listed as “released a very high amount of CO”, the “Effect … in acidic aqueous solution” value is reported as “inhibited the decarbonylation process” and the “CO release in pH 2 (acidic aqueous) solution” value is “decarbonylated significantly”. The “CO release in H2O2 solution” value in data set [3] is “No CO release was observed”. Moreover, in data set [3] (setting [7]), the “CO release in rpmi” value is recorded as “even less” and the “CO release in pH 2 (acidic aqueous) solution” value was “less”.
In the case of `CC(C)(C=O)CO` [compound 4, 3-hydroxy-2,2-dimethylpropanal], the “Time course of CO release in TBHP solution” value in data set [3] (TBHP solution, 0.12 M) is “initially the CO release was small, but within one day, it reached high levels”. Besides, the “Media in which CO release was observed” value in data set [3] was “released CO only in TBHP solution”.
For the compound `Cc1ccc(CC(C)(C)C=O)cc1` [compound 6, 2,2-dimethyl-3-(p-methylphenyl)propanal], in data set [3], the “CO release in rpmi” value is on record as “decarbonylation in rpmi observed”, the “Effect … in acidic aqueous solution” value was “inhibited the decarbonylation process”, the “CO release in pH 2 (acidic aqueous) solution” value is on record as “decarbonylated significantly” and the “Media in which CO release was observed” value is given as “released CO in all media tested except H2O2 solution”.
In the case of `CC(C)(C=O)c1ccccc1` [compound 7, 2-methyl-2-phenylpropionaldehyde], in data set [3], the “Effect … in acidic aqueous solution” value was “inhibited the decarbonylation process”, the “CO release in pH 2 (acidic aqueous) solution” value is given as “decarbonylated significantly”, the “CO release in H2O2 solution” value is reported as “responded significantly to decarbonylation” and the “Media in which CO release was observed” value is “released CO in all media tested except rpmi solution”. For the same compound, the “Increase in body weight by day 40” value with adjuvant arthritis [4] (setting [5]) stood at 28.6%. Also, in the data set on adjuvant arthritis [4] (100 mg/kg), the “Days with significant inhibition of arthritic score relative to vehicle treated rats” value turned out to be 14 days and the “Reduction in paw volume compared with dexamethasone” value is listed as “comparable to that seen in rats treated with dexamethasone”. Moreover, in the data set on adjuvant arthritis [4] (setting [6]), the “Increase in body weight by day 40” value worked out at 31.6%. In the data set with adjuvant arthritis [4], the Arthritic score result is given as “only slightly influenced” and the “Increase in paw volume compared to vehicle or untreated rats” value is “reduced the increase in paw volume”.
With `C[C@@H]1C[C@H]2[C@@H]3CCC4=CC(=O)C=C[C@]4(C)[C@@]3(F)[C@@H](O)C[C@]2(C)[C@@]1(O)C(=O)CO` [dexamethasone, reference compound], the “Increase in body weight by day 40” value in the data set on adjuvant arthritis [4] (dexamethasone 0.3 mg/kg daily for 30 days from day 10) is on record as 25.7%.

The values above are taken from US7968605B2, “Methods for treating inflammatory disease by administering aldehydes and derivatives thereof” (ALFAMA—Investigação e Desenvolvimento de Produtos …, priority 2002, dated 2011).
